Test results from US20260102413A1, “TREATING PAIN ASSOCIATED WITH CENTRAL SENSITIZATION” (Medicon Pharmaceuticals, Inc., priority 2022, published 2026).

What was measured:
[1] = tested on: mice with paclitaxel-induced CIPN; assay: von Frey PWT, paclitaxel CIPN model, orally administered compounds; type: in vivo, mouse; conditions: paclitaxel 8 mg/kg x4; oral gavage 3x/day 7 days: PS 50, sulindac 33, PN 65, naproxen 35 mg/kg; day 7
Source text: CIPN was induced in mice with chemotherapeutic agents using established protocols (Carozzi et al, 2010; Currie et al, 2019; Eldridge et al, 2020). […] This dosing regimen of paclitaxel produces pain associated with CIPN with time courses that are similar to those of pain after paclitaxel administration in cancer patients.
Group 1: naïve mice (i.e. no paclitaxel, n=8) • 2. Group 2: paclitaxel only (n=8) • 3. Group 3: paclitaxel plus vehicle (n=8) • 4. […] Group 5: paclitaxel pluse sulindac (n=8)
The PWT test was performed on day 7.
Phospho-naproxen (PN) and naproxen were given by oral gavage, three times a day for 7 days. Their doses were as follows: PN, 65 mg/kg; naproxen, 35 mg/kg (equimolar to PN). The response of mechanical allodynia to phospho-naproxen (PN) and naproxen was tested on day 7.
(§1) This dosing regimen of paclitaxel produces pain associated with CIPN with time courses that are similar to those of pain after paclitaxel administration in cancer patients.
Phospho-ibuprofen (PI) (Formula III), phospho-glycerol-ibuprofen (PGI) (Formula LXXI), phospho-ibuprofen-amide (PIA) (Formula XI), and ibuprofen were given by oral gavage, three times a day for 6 days. Their doses were as follows: ibuprofen, 40 mg/kg; PI, 80 mg/kg; PIA, 80 mg/kg; all three were equimolar.
The response of mechanical allodynia to these compounds was tested on day 6, using the PWT test.
as §1
NO-sulindac (Formula XLIV), HS-sulindac (Formula XXXIV), platinum-sulindac (Formula LXVII), and NOSH-1 (Formula LIX) were given by oral gavage, three times a day throughout the study period. Their doses were all 100 mg/kg.
The response of mechanical allodynia to these compounds was tested on the days set out in the table below, via the PWT test.
LXIX was given by oral gavage, once a day for 14 days at a dose of 100 mg/kg.
The response of mechanical allodynia to these compounds was tested on day 14, via the PWT test.

[2] = tested on: STZ-diabetic rats; type: in vivo, rat; conditions: PS 8% hydrogel, sulindac 0.7% hydrogel 3x/day day −2 to 28; lidocaine cream 5% once 30 min before; STZ day 0; day 28
Source text: The animal model corresponds to that used for Example 4, but using a prevention protocol. As in Example 4, the outcome measure, determining the effect of the treatment on the prevention of mechanical allodynia, was the PWT test, using von Frey filaments. The measurements were taken at day −3, before treatment or induction of neuropathic pain associated with DPN, and again at the end of the study period (day 28).
The rats were randomised into treatment groups as follows, all having an average body weight of about 225 g. • 1. Group 1: naïve rats (n=6) • 2. Group 2: STZ only (n=8) • 3. Group 3: STZ plus vehicle (n=8) • 4. […] Group 5: STZ plus sulindac 0.7% (n=8) • 6. Group 6: STZ plus lidocaine cream 5% (n=8)
Each treatment group was subjected to a PWT assessment at day −3 in order to determine the baseline of mechanical allodynia.
For those rats in the lidocaine treatment group, lidocaine cream was applied only once to both hind paws of the rats 30 min before the final PWT measurement on day 28. On day 0, neuropathic pain associated with DPN was induced with the administration of STZ, and the blood glucose was checked on day 3.

[3] = drug levels in proximal and distal half of the sciatic nerve after topical PS; type: in vivo, mouse; conditions: paclitaxel-PN mice, PS 8% ointment 3x/d 2 wks; 30 min after last dose
Method: In a separate experiment we studied 8 mice with paclitaxel-induced PN treated with PS 8% ointment 3×/d for 2 wks. Mice were euthanized as above 30 minutes after the last dose of PS. From these mice we harvested both sciatic nerves dividing each into proximal and distal halves, and combined the corresponding halves of every two animals for assay of drug levels.

[4] = type: in vivo, mouse; conditions: all tissues except the sciatic nerve (higher) and DRG (equal)
Method: At 0.5, 1, 3, 5, 12, 18, and 24 h, mice (n=4-5 mice/time point) were euthanized with CO2 inhalation. Blood was drawn immediately after death. Tissues, including paw skin, paw muscle, leg muscle, the sciatic nerve and lumbar DRG bilaterally were dissected quickly, immediately frozen in liquid nitrogen and stored at −80° C. until analyzed.

CC1=C(CC(=O)O)c2cc(F)ccc2/C1=C\c1ccc([S+](C)[O-])cc1 (stereo not shown) [sulindac, reference compound]
PWT, g Mean ± SEM [1]: 0.56 ± 0.05 g | von Frey, gm mean ± SEM [2]: 27.7 ± 1.4 gm | Fold difference distal vs proximal [3]: 8.5 | sulindac levels as % of those of PS [4]: around 25%
